Measured values published in paper PMC10176470, “Engaging a Non-catalytic Cysteine Residue Drives Potent and Selective Inhibition of Caspase-6” (Journal of the American Chemical Society, 2023).

Columns and labels:
Type in all cases: cell-based
[1] = target: T1, proteins of HEK293T cells transiently overexpressing caspase-6 (Homo sapiens, UniProt O00567); settings: exp_ref Probe; protein NOP56 (O00567); analysis C6
T1 sequence (O00567 1-594): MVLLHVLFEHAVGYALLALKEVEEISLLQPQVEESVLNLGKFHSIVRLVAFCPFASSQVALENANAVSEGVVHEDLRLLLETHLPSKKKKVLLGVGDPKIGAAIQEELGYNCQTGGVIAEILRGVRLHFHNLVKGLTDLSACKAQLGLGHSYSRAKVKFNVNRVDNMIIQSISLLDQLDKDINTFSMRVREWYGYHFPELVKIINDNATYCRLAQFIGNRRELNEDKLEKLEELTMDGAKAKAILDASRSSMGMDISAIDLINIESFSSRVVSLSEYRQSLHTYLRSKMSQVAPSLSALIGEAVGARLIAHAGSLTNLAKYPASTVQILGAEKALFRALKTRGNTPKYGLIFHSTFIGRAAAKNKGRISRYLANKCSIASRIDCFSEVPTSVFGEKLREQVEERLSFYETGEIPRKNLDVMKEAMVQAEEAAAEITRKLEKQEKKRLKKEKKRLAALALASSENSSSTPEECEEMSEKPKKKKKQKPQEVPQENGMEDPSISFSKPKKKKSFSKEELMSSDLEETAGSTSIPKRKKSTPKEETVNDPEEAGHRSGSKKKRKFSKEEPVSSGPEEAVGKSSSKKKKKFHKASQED

[2] = target: proteins of HEK293T cells transiently overexpressing caspase-6 (Homo sapiens, UniProt P22314); settings: exp_ref Probe; protein UBA1 (P22314); analysis C6
proteins of HEK293T cells transiently overexpressing caspase-6 (Homo sapiens, UniProt P22314), sequence (P22314 whole entry): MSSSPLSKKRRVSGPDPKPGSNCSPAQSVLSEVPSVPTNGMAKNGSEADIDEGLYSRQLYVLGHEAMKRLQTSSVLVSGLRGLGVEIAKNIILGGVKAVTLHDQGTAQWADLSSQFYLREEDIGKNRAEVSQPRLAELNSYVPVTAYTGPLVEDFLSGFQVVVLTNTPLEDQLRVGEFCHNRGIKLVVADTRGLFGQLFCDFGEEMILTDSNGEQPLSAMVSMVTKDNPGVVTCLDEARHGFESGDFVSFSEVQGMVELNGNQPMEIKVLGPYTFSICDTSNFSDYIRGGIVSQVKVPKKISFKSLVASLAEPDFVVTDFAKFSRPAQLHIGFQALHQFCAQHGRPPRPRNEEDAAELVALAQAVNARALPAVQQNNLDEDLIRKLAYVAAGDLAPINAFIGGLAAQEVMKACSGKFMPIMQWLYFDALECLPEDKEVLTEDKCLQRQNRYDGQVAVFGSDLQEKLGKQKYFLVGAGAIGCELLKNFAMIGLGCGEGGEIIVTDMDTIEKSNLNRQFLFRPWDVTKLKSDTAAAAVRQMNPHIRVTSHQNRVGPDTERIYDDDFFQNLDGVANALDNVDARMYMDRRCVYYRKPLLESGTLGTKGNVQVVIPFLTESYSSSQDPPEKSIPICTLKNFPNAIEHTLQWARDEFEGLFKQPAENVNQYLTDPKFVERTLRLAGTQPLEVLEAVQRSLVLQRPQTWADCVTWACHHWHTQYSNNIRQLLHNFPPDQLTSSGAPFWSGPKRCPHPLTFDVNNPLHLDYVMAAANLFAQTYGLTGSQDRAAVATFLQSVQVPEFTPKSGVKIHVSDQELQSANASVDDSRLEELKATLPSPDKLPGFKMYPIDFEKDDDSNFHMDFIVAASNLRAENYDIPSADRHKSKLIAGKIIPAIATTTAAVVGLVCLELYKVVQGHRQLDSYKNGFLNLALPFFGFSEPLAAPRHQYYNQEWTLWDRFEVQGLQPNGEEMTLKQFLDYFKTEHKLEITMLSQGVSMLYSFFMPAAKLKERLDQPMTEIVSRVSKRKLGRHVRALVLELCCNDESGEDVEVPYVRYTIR

[3] = target: T2, proteins of HEK293T cells transiently overexpressing caspase-6 (Homo sapiens, UniProt P28074)
T2 sequence (P28074 60-263): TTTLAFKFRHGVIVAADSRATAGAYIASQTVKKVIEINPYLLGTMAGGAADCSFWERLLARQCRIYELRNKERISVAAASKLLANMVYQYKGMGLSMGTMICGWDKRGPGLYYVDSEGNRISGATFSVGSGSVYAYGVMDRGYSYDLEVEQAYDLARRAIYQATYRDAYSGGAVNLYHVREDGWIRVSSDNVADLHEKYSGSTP

[4] = target: proteins of HEK293T cells transiently overexpressing caspase-6 (Homo sapiens, UniProt P43487); settings: exp_ref Probe; protein RANBP1 (P43487); analysis C6
proteins of HEK293T cells transiently overexpressing caspase-6 (Homo sapiens, UniProt P43487), sequence (P43487 whole entry): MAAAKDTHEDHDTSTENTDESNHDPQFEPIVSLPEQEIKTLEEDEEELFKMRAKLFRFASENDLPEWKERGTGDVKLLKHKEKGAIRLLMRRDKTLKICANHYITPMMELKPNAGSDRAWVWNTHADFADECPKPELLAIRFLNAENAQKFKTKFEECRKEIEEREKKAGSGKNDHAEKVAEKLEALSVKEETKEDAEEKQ

[5] = target: T3, proteins of HEK293T cells transiently overexpressing caspase-6 (Homo sapiens, UniProt P46977); settings: protein STT3A (P46977)
T3 sequence (P46977 1-705): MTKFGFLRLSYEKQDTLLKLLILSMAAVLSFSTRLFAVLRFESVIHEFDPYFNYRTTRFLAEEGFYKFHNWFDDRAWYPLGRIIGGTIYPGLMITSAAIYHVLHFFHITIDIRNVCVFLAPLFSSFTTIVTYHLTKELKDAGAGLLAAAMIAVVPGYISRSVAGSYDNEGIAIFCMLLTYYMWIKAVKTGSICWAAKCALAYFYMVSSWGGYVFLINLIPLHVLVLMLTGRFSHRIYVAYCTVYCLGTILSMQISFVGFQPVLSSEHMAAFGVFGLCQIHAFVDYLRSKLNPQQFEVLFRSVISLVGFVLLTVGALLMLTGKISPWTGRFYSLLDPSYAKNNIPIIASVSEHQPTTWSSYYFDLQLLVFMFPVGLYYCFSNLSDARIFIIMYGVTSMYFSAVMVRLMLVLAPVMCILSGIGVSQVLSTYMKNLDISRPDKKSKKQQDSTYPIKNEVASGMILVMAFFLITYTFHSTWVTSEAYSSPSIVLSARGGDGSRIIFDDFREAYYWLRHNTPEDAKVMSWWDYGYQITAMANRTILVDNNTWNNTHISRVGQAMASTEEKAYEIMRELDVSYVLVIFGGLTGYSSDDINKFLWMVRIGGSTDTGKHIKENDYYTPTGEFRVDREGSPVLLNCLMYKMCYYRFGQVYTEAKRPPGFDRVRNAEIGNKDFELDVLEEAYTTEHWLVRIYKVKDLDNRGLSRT

[6] = target: proteins of HEK293T cells transiently overexpressing caspase-6 (Homo sapiens, UniProt P49189); settings: exp_ref Probe; protein ALDH9A1 (P49189); analysis C6
proteins of HEK293T cells transiently overexpressing caspase-6 (Homo sapiens, UniProt P49189), sequence (P49189 whole entry): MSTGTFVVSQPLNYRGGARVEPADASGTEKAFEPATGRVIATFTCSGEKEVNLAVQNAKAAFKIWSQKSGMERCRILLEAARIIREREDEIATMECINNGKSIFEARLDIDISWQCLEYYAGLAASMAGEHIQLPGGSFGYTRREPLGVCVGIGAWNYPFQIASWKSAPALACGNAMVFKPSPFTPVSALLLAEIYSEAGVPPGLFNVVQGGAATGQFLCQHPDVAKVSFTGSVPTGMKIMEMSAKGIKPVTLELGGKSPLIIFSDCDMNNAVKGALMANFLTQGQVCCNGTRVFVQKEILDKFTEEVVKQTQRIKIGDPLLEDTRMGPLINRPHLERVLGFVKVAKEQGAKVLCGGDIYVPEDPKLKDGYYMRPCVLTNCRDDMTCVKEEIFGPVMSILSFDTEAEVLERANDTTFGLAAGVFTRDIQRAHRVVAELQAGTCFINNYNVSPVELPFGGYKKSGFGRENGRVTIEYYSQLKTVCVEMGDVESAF

[7] = target: proteins of HEK293T cells transiently overexpressing caspase-6 (Homo sapiens, UniProt P49327); settings: exp_ref Probe; protein FASN (P49327); analysis C6
proteins of HEK293T cells transiently overexpressing caspase-6 (Homo sapiens, UniProt P49327), sequence (P49327 whole entry): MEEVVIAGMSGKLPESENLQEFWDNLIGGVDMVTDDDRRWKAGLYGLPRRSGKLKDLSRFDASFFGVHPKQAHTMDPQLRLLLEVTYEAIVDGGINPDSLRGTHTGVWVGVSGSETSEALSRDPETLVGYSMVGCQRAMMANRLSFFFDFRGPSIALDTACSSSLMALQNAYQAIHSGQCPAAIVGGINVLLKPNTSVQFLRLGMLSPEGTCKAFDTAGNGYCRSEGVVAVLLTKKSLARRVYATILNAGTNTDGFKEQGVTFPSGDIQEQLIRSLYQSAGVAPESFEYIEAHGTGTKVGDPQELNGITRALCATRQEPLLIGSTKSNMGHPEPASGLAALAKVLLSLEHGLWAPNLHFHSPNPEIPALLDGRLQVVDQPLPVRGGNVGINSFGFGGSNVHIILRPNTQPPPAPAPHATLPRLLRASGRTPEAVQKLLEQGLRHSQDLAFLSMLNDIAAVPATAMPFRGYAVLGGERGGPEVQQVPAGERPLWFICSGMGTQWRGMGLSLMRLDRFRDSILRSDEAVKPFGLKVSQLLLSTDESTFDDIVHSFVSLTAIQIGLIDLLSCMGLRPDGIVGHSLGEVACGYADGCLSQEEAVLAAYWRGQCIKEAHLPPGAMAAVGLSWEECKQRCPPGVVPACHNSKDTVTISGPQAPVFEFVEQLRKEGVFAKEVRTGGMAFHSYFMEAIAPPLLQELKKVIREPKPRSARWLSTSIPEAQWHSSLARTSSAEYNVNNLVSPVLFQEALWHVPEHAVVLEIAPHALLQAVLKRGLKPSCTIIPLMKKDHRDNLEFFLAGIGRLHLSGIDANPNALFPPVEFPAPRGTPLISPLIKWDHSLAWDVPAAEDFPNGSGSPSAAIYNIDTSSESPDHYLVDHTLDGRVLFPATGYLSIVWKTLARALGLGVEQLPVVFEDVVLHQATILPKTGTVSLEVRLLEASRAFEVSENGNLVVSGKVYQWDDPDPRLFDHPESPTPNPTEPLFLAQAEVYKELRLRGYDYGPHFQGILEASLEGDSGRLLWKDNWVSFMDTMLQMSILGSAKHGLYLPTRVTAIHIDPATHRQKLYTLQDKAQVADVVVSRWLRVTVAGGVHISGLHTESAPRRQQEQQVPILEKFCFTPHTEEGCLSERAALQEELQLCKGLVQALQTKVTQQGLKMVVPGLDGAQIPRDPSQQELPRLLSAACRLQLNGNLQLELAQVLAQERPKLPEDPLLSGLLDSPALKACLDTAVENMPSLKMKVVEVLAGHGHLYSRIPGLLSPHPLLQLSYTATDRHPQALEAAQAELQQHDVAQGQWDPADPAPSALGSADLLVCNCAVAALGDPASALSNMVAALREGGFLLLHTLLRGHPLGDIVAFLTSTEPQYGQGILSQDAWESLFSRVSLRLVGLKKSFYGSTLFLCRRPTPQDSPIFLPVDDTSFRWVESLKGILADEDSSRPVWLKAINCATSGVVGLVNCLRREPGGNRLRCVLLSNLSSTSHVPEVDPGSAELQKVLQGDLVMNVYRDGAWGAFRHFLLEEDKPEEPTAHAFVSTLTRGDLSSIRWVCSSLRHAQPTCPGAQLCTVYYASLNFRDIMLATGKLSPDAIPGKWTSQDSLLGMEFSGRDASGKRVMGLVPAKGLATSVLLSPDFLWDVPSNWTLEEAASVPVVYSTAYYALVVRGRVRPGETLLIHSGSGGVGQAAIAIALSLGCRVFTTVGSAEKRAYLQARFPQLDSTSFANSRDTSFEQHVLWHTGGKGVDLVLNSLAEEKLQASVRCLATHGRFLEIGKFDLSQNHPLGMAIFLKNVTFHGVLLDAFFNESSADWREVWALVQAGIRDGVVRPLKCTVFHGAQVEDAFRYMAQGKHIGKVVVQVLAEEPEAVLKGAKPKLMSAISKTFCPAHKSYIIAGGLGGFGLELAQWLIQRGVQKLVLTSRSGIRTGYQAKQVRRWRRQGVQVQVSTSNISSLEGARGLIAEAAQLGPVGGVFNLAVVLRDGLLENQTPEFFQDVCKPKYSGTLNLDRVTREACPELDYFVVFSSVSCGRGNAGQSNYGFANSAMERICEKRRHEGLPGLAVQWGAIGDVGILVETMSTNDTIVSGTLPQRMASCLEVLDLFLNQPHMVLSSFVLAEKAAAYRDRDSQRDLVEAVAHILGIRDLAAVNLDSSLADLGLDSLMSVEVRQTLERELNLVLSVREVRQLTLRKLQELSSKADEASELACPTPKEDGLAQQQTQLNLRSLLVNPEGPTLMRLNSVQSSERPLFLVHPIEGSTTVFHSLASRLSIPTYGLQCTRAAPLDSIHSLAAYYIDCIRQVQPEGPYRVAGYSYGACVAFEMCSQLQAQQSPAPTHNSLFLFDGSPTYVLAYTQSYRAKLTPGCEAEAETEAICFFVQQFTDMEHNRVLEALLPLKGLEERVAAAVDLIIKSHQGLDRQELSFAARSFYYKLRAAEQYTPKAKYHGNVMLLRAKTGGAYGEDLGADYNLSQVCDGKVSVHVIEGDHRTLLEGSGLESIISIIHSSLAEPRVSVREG

[8] = target: proteins of HEK293T cells transiently overexpressing caspase-6 (Homo sapiens, UniProt P52292); settings: exp_ref Probe; protein KPNA2 (P52292); analysis C6
[9] = target: proteins of HEK293T cells transiently overexpressing caspase-6 (Homo sapiens, UniProt P60174); settings: exp_ref Probe; protein TPI1 (P60174); analysis C6
proteins of HEK293T cells transiently overexpressing caspase-6 (Homo sapiens, UniProt P60174), sequence (P60174 whole entry): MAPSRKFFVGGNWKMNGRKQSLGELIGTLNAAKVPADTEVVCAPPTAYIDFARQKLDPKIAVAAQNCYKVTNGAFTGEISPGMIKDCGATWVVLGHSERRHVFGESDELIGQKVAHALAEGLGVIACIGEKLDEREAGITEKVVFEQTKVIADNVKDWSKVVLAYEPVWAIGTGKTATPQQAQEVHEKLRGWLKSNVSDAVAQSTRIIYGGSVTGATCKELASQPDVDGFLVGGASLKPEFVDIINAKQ

[10] = target: proteins of HEK293T cells transiently overexpressing caspase-6 (Homo sapiens, UniProt P61313)
[11] = target: proteins of HEK293T cells transiently overexpressing caspase-6 (Homo sapiens, UniProt P63261); settings: exp_ref Probe; protein ACTG1 (P63261); analysis C6
[12] = target: proteins of HEK293T cells transiently overexpressing caspase-6 (Homo sapiens, UniProt Q13428); settings: exp_ref Probe; protein TCOF1 (Q13428); analysis C6
[13] = target: proteins of HEK293T cells transiently overexpressing caspase-6 (Homo sapiens, UniProt Q16576); settings: exp_ref Probe; protein RBBP7 (Q16576); analysis C6
proteins of HEK293T cells transiently overexpressing caspase-6 (Homo sapiens, UniProt Q16576), sequence (Q16576 whole entry): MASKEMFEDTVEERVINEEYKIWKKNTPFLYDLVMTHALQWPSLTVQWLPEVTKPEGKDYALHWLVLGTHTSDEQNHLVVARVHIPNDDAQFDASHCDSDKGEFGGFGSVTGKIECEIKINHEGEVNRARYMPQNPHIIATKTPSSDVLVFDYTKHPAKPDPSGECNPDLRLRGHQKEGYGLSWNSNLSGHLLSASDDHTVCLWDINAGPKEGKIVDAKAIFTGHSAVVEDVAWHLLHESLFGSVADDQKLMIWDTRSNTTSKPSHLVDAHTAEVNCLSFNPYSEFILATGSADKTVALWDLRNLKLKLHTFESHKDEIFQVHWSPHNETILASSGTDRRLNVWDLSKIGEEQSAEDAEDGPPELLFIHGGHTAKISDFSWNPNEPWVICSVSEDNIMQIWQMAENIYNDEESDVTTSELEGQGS

[14] = target: proteins of HEK293T cells transiently overexpressing caspase-6 (Homo sapiens, UniProt Q9NR30); settings: exp_ref Probe; protein DDX21 (Q9NR30); analysis C6

## C#CCOc1ccc([C@@H]2C[C@@H](C(=O)Nc3ccc(OC(F)(F)F)cc3)CN(S(=O)(=O)C=C)C2)cc1 (relative stereo) [13-t]
[1]
  enrich.exp.med: -0.321
[2]
  enrich.exp.med: 0.3187
[3]; Probe, protein PSMB5 P28074
  enrich.exp.med: -2.323
[3]; protein PSMB5 (P28074)
  enrich.exp.med.lin: 0.1999
  enrich.exp.med.log2: -2.323
[4]
  enrich.exp.med: 0.3695
[5]
  enrich.exp.med.lin: 3.857
  enrich.exp.med.log2: 1.948
[5]; exp_ref Probe, analysis C6
  enrich.exp.med: 1.948
[6]
  enrich.exp.med: 0.2139
[7]
  enrich.exp.med: -0.2577
[8]
  enrich.exp.med: 0.5159
[9]
  enrich.exp.med: 0.1365
[10]; Probe, protein RPL15 P61313
  enrich.exp.med: -0.9576
[10]; protein RPL15 (P61313)
  enrich.exp.med.lin: 0.5149
  enrich.exp.med.log2: -0.9576
[11]
  enrich.exp.med: 0.6252
[12]
  enrich.exp.med: 0.9444
[13]
  enrich.exp.med: 0.6141
[14]
  enrich.exp.med: 0.5934
